From patent US7763732B2, “Indole derivatives” (N.V. Organon, priority 2005, dated 2010)

system: mice; test: Formalin paw test in mice; type: in vivo; details: Mus musculus, intravenous, 5 min before 5% formalin s.c. into hind paw, Phase 2 = 20-30 min after formalin, read-out: ED50, inhibition of nociceptive behaviour of Phase 2
Method: Formalin Paw Test In Mice
Four-six groups of six mice were treated with vehicle and one of four to five doses of the test compound (typically between 0.03, 0.1, 3 and 10 μmol/kg), administered intravenously into the tail vein (vehicle: 10% Tween-80 in saline; injection volume 10 ml/kg). This injection was followed 5 minutes later by 20 μl of 5% formalin, which was administered sub-cutaneously to the dorsum of the left hind paw. Immediately after formalin administration the animal was placed in a test chamber and data acquisition, using a detection device (Automated Nociception Analyser (ANA); Department of Anesthesiology, University of California, San Diego), was started, independently for each chamber. The nociceptive behaviour was measured as the number of counts (licking, lifting, biting and flinching actions) detected within the two phases of nociception (Yaksh et al, 2001). The nociceptive behaviour between 0 and 5 min after formalin injection (Phase 1) and between 20 and 30 min after formalin injection (Phase 2) was recorded and number of counts for each mouse, compared to the mean number of counts for the vehicle treated animals, was calculated. Once values for each mouse were obtained, the mean and s.e.m. were calculated for each treatment group. The percent inhibition data were then used to calculate ED50 values for Phase 1 and Phase 2.

Structure (SMILES)	ED50
O=C(NCCO)C1CCN(Cc2nc(-c3cn(CC4CCOCC4)c4c(Cl)cccc34)no2)CC1 [Example 19]	< 5 µmol/kg
CN(CC(N)=O)Cc1nc(-c2cn(CC3CCOCC3)c3c(Cl)cccc23)no1 [Example 20, 7-Chloro-3-[(5-{[N-(carboxamido)methyl]-N-methylamino}methyl)-([1,2,4]oxadiazol-3-yl)]-1-(tetrahydropyran-4-yl)methyl-1H-indole]	< 5 µmol/kg
CCc1cccc2c(-c3nsc(CN4CCC(C(=O)NCCO)CC4)n3)cn(CC3CCOCC3)c12 [Example 10A, 7-Ethyl-3-[(5-{4-[(N-{2-hydroxy}ethyl)carboxamido]piperidin-1-yl}methyl)-(1,2,4]-thiadiazol-3-yl)-1-(tetrahydropyran-4-yl)methyl-1H-indole]	< 5 µmol/kg
CS(=O)(=O)N(CCO)Cc1nc(-c2cn(CC3CCOCC3)c3c(Cl)cccc23)ns1 [Example 15, 7-Chloro-3-({5-[(N-{2-hydroxy}ethyl)-(N-{methylsulfonyl})amino]methyl}-([1,2,4]-thiadiazol-3-yl))-1-(tetrahydropyran-4-yl)methyl-1H-indole]	< 5 µmol/kg
